Test results from patent US10681909B2, “Herbicidal triazoles” (FMC Corporation, priority 2014, dated 2020).

What was measured:
[1] = system: galium; test: Test C preemergence; type: in vivo, Galium aparine; conditions: for Plant response rating (scale of 0 to 100 where 0 is no effect and 100 is complete control): Galium, preemergence; for Galium plant response rating (0 to 100): Preemergence, visual rating after 13 to 15 d
Description: (§1) Seeds of plant species selected from blackgrass (Alopecurus myosuroides), ryegrass, Italian (Italian ryegrass, Lolium multiflorum), wheat (winter wheat, Triticum aestivum), galium (catchweed bedstraw, Galium aparine), corn (Zea mays), crabgrass, large (large crabgrass, Digitaria sanguinalis), foxtail, giant, (giant foxtail, Setaria faberii), johnsongrass (Sorghum halepense), lambsquarters (Chenopodium album), morningglory (Ipomoea coccinea), nutsedge, yellow (yellow nutsedge, Cyperus esculentus), pigweed (Amaranthus retroflexus), ragweed (common ragweed, Ambrosia elatior), soybean (Glycine max), barnyardgrass (Echinochloa crus-galli), oilseed rape (Brassica napus), waterhemp (common waterhemp, Amaranthus rudis), and velvetleaf (Abutilon theophrasti) were planted into a blend of loam soil and sand and treated preemergence with test chemicals formulated in a non-phytotoxic solvent mixture which included a surfactant. At the same time, plants selected from these crop and weed species and also chickweed (common chickweed, Stellaria media), oat, wild (wild oat, Avena fatua), and kochia (Kochia scoparia), were planted in pots containing Sunshine Redi-Earth® planting medium comprising spaghnum peat moss, vermiculite, starter nutrients and dolomitic limestone and treated with postemergence applications of test chemicals formulated in the same manner. Plants ranged in height from 2 to 18 cm (1- to 4-leaf stage) for postemergence treatments. […] A dash (-) response means no test result.

[2] = system: corn; test: Test C preemergence; type: in vivo, Zea mays; conditions: for Plant response rating (scale of 0 to 100 where 0 is no effect and 100 is complete control): Corn, preemergence; for Corn plant response rating (0 to 100): Preemergence, visual rating after 13 to 15 d
Description: as §1

[3] = system: foxtail, giant; test: Test C preemergence; type: in vivo, Setaria faberii; conditions: for Plant response rating (scale of 0 to 100 where 0 is no effect and 100 is complete control): Foxtail, Giant, preemergence; for Foxtail, Giant plant response rating (0 to 100): Preemergence, visual rating after 13 to 15 d
Description: as §1

[4] = system: lambsquarters; test: Test C preemergence; type: in vivo, Chenopodium album; conditions: for Plant response rating (scale of 0 to 100 where 0 is no effect and 100 is complete control): Lambsquarters, preemergence; for Lambsquarters plant response rating (0 to 100): Preemergence, visual rating after 13 to 15 d
Description: as §1

[5] = system: ragweed; test: Test C preemergence; type: in vivo, Ambrosia elatior; conditions: for Ragweed plant response rating (0 to 100): Preemergence, visual rating after 13 to 15 d; for Plant response rating (scale of 0 to 100 where 0 is no effect and 100 is complete control): Ragweed, preemergence
Description: as §1

[6] = system: barnyardgrass; test: Test C preemergence; type: in vivo, Echinochloa crus-galli; conditions: for Plant response rating (scale of 0 to 100 where 0 is no effect and 100 is complete control): Barnyardgrass, preemergence; for Barnyardgrass plant response rating (0 to 100): Preemergence, visual rating after 13 to 15 d
Description: as §1

[7] = system: velvetleaf; test: Test C preemergence; type: in vivo, Abutilon theophrasti; conditions: for Velvetleaf plant response rating (0 to 100): Preemergence, visual rating after 13 to 15 d
Description: as §1

[8] = system: bromegrass, down; test: Test D preemergence; type: in vivo, Bromus tectorum; conditions: for Plant response rating: Bromegrass, Down: scale 0 to 100
Description: (§2) Seeds of plant species selected from bluegrass (annual bluegrass, Poa annua), blackgrass (Alopecurus myosuroides), canarygrass (Phalaris minor), chickweed (common chickweed, Stellaria media), galium (catchweed bedstraw, Galium aparine), bromegrass, down (downy bromegrass, Bromus tectorum), Russian thistle (Salsola kali), field poppy (Papaver rhoeas), field violet (Viola arvensis), foxtail, green (green foxtail, Setaria viridis), deadnettle (henbit deadnettle, Lamium amplexicaule), ryegrass, Ital. (Italian ryegrass, Lolium multiflorum), kochia (Kochia scoparia), lambsquarters (Chenopodium album), oilseed rape (Brassica napus), pigweed (Amaranthus retroflexus), chamomile (scentless chamomile, Matricaria inodora), speedwell (bird's-eye speedwell, Veronica persica), barley, spring (spring barley, Hordeum vulgare), wheat, spring (spring wheat, Triticum aestivum), buckwheat, wild (wild buckwheat, Polygonum convolvulus), wild mustard (Sinapis arvensis), oat, wild (wild oat, Avena fatua), radish, wild (wild radish, Raphanus raphanistrum), […]), barley, winter (winter barley, Hordeum vulgare), and wheat, winter (winter wheat, Triticum aestivum) were planted into a silt loam soil and treated preemergence with test chemicals formulated in a non-phytotoxic solvent mixture which included a surfactant. At the same time, these species were planted in pots containing Sunshine Redi-Earth® planting medium comprising spaghnum peat moss, vermiculite, starter nutrients and dolomitic limestone and treated with postemergence applications of the test chemicals formulated in the same manner. Plants ranged in height from 2 to 18 cm (1- to 4-leaf stage). Treated plants and controls were maintained in a controlled growth environment for 14 to 21 d after which time all species were compared to controls and visually evaluated. […] A dash (-) response means no test result.

[9] = system: barley, spring; test: Test D preemergence; type: in vivo, Hordeum vulgare; conditions: for Plant response rating: Barley, Spring: scale 0 to 100
Description: as §2

[10] = system: barley, winter; test: Test D preemergence; type: in vivo, Hordeum vulgare; conditions: for Plant response rating: Barley, Winter: scale 0 to 100
Description: as §2

[11] = system: wheat, spring; test: Test D preemergence; type: in vivo, Triticum aestivum; conditions: for Plant response rating: Wheat, Spring: scale 0 to 100
Description: as §2

[12] = system: wheat, winter; test: Test D preemergence; type: in vivo, Triticum aestivum; conditions: for Plant response rating: Wheat, Winter: scale 0 to 100
Description: as §2

[13] = system: oat, wild; test: Test D preemergence; type: in vivo, Avena fatua; conditions: for Plant response rating: Oat, Wild: scale 0 to 100
Description: as §2

[14] = system: windgrass; test: Test D preemergence; type: in vivo, Apera spica-venti; conditions: for Plant response rating: Windgrass: scale 0 to 100
Description: as §2

[15] = system: canarygrass; test: Test D postemergence; type: in vivo, Phalaris minor; conditions: scale 0 to 100
Description: as §2

[16] = system: chickweed; test: Test D postemergence; type: in vivo, Stellaria media; conditions: scale 0 to 100
Description: as §2

[17] = system: foxtail, green; test: Test D postemergence; type: in vivo, Setaria viridis; conditions: scale 0 to 100
Description: as §2

[18] = 16 g ai/ha, 0 is no effect, 100 is complete control

FC(F)(F)COc1nc(-c2ccc(Cl)cc2)nn1Cc1ccnc(C(F)(F)F)c1 [Compound 31]
85: Plant response rating: Foxtail, Green ([17]; 125 g ai/ha)
55: Velvetleaf plant response rating (0 to 100) ([7]; 62 g ai/ha) | Plant response rating: Bromegrass, Down ([8]; 125 g ai/ha) | Plant response rating: Oat, Wild ([13]; 62 g ai/ha)
0: Corn plant response rating (0 to 100) ([2]; 31 g ai/ha) | Corn plant response rating (0 to 100) ([2]; 62 g ai/ha)
80: Barnyardgrass plant response rating (0 to 100) ([6]; 62 g ai/ha) | Plant response rating (scale of 0 to 100 where 0 is no effect and 100 is complete control) ([7]; Velvetleaf, preemergence, 250 g ai/ha) | Plant response rating: Canarygrass ([15]; 62 g ai/ha) | Plant response rating: Canarygrass ([15]; 125 g ai/ha) | Plant response rating: Chickweed ([16]; 16 g ai/ha) | Plant response rating: Foxtail, Green ([17]; 31 g ai/ha) | Plant response rating: Foxtail, Green ([17]; 62 g ai/ha)
35: Plant response rating (scale of 0 to 100 where 0 is no effect and 100 is complete control) ([1]; 250 g ai/ha) | Velvetleaf plant response rating (0 to 100) ([7]; 31 g ai/ha) | Plant response rating (0 to 100), Barley, Spring [9, 18] | Plant response rating: Barley, Winter ([10]; 31 g ai/ha) | Plant response rating (0 to 100), Oat, Wild [13, 18]
50: Ragweed plant response rating (0 to 100) ([5]; 62 g ai/ha) | Plant response rating: Bromegrass, Down ([8]; 62 g ai/ha) | Plant response rating: Barley, Spring ([9]; 125 g ai/ha) | Plant response rating: Barley, Winter ([10]; 125 g ai/ha)
100: Plant response rating (scale of 0 to 100 where 0 is no effect and 100 is complete control) ([3]; 250 g ai/ha) | Plant response rating (scale of 0 to 100 where 0 is no effect and 100 is complete control) ([4]; 125 g ai/ha) | Lambsquarters plant response rating (0 to 100) ([4]; 62 g ai/ha) | Plant response rating: Windgrass ([14]; 62 g ai/ha) | Plant response rating: Windgrass ([14]; 125 g ai/ha) | Plant response rating: Chickweed ([16]; 62 g ai/ha) | Plant response rating: Chickweed ([16]; 125 g ai/ha)
75: Plant response rating (scale of 0 to 100 where 0 is no effect and 100 is complete control) ([5]; 250 g ai/ha) | Plant response rating: Oat, Wild ([13]; 125 g ai/ha) | Plant response rating: Canarygrass ([15]; 31 g ai/ha)
25: Plant response rating (scale of 0 to 100 where 0 is no effect and 100 is complete control) ([2]; 250 g ai/ha) | Plant response rating (0 to 100), Bromegrass, Down [8, 18] | Plant response rating: Bromegrass, Down ([8]; 31 g ai/ha) | Plant response rating (0 to 100), Barley, Winter [10, 18]
20: Plant response rating (scale of 0 to 100 where 0 is no effect and 100 is complete control) ([2]; 125 g ai/ha) | Plant response rating (0 to 100), Wheat, Winter [12, 18] | Plant response rating: Wheat, Winter ([12]; 62 g ai/ha)
65: Plant response rating (scale of 0 to 100 where 0 is no effect and 100 is complete control) ([5]; 125 g ai/ha) | Plant response rating: Canarygrass ([15]; 16 g ai/ha)
70: Barnyardgrass plant response rating (0 to 100) ([6]; 31 g ai/ha) | Plant response rating: Foxtail, Green ([17]; 16 g ai/ha)
90: Foxtail, Giant plant response rating (0 to 100) ([3]; 31 g ai/ha) | Lambsquarters plant response rating (0 to 100) ([4]; 31 g ai/ha) | Plant response rating (scale of 0 to 100 where 0 is no effect and 100 is complete control) ([6]; 125 g ai/ha) | Plant response rating: Chickweed ([16]; 31 g ai/ha)
30: Plant response rating (scale of 0 to 100 where 0 is no effect and 100 is complete control) ([1]; 125 g ai/ha) | Galium plant response rating (0 to 100) ([1]; 62 g ai/ha) | Plant response rating (0 to 100), Wheat, Spring [11, 18] | Plant response rating: Wheat, Winter ([12]; 125 g ai/ha)
95: Foxtail, Giant plant response rating (0 to 100) ([3]; 62 g ai/ha) | Plant response rating (scale of 0 to 100 where 0 is no effect and 100 is complete control) ([6]; 250 g ai/ha)
45: Ragweed plant response rating (0 to 100) ([5]; 31 g ai/ha) | Plant response rating: Barley, Spring ([9]; 31 g ai/ha) | Plant response rating: Barley, Spring ([9]; 62 g ai/ha) | Plant response rating: Wheat, Spring ([11]; 125 g ai/ha)
98: Plant response rating (scale of 0 to 100 where 0 is no effect and 100 is complete control) ([3]; 125 g ai/ha) | Plant response rating (scale of 0 to 100 where 0 is no effect and 100 is complete control) ([4]; 250 g ai/ha)
60: Plant response rating (0 to 100), Windgrass [14, 18]
5: Galium plant response rating (0 to 100) ([1]; 31 g ai/ha)
40: Plant response rating: Barley, Winter ([10]; 62 g ai/ha) | Plant response rating: Wheat, Spring ([11]; 62 g ai/ha)
